Data taken from patent US20110300198A1, “HYDROCOLLOID - ESSENTIAL OIL PATCHES” (priority 2010, published 2011).
“And” between values parts separate entries of the source, which are not always exact repeats. Equal values may be shown once. Marks after values point to notes of the source that are not given here.

Columns and labels:
[1] = Ex-vivo transfer of essential-oil constituents through the skin in Franz diffusion cells; assay type: in vitro ADME, rat; details: for Accumulated concentration transferred through the skin: from gum karaya-Lavandula angustifolia essential oil patch (7.5% oil); for Accumulated concentration diffused through the skin: mixture of Lavandula angustifolia essential oil and almond oil rubbed on the skin
Method: Ex-vivo release studies were performed in Franz diffusion cells (FCs) (PermeGear, Hellertown, Pa.). Stomach skin pieces (1.2 cm×1.2 cm) from a male rat, which were stored in the freezer for 1 month, were thawed at room temperature and placed in glass FCs. The surface area for absorption was 0.64 cm2. The FCs were thermoregulated with a water jacket at 32° C. The 4.5-ml volume of the receptor chamber of the FC was filled with a receptor solution containing 5% (w/v) bovine serum albumin (BSA) diluted with phosphate buffer pH 7.4. […] The receptor solution was continuously agitated with a magnetic stirrer. During the experiments, the donor compartments and sampling arms were sealed to prevent evaporation. The fluid in the receptor chamber was removed after different periods of time (0, 6, 12, 24, 36 and 48 h) and replaced with fresh phosphate buffer solution. Samples were stored at 4° C. after sampling, prior to analysis. Samples were analyzed in a gas chromatograph (Agilent Technologies, Santa Clara, Calif.) with a WAX 30 m×0.32 mm×0.25 μm (Agilent) column.
Transdermal delivery of essential-oil components through rat skin from both lavender essential oil, which includes a high proportion of terpenoids, and Valencia orange essential oil, which includes a considerable amount of terpene, entrapped within gum-karaya-based patches, was examined. In addition to the regular patch adhered to the skin to be tested for essential-oil delivery by the traditional FCs and by in vivo tests (detailed below), another experiment was performed in which the skin was smeared with an almond-essential oil mixture, in order to partially imitate the situation in which the skin is massaged in an aromatherapy session. All experiments were conducted at ambient temperature and the inclusion of the essential oil as part of the almond oil-essential oil mixture (for the massage-like simulation) was equal in quantity and proportion to the inclusion of essential oil within the patch.

[2] = Preliminary in-vivo experiment, constituents in blood (GC, WAX column); design: species or system rat
[3] = In-vivo experiment with HP-5 column, constituents in blood; design: species or system rat
Text: Male Sprague-Dawley rats, weighing 300-350 g, were used in the studies (Harlan, Rehovot, Israel). The experimental protocols were approved by the Hebrew University of Jerusalem Committee on the Use and Care of Animals. Rats were maintained under specified-pathogen-free (SPF) conditions and were allowed to acclimate to the environment for at least 7 days before their use in the study. Rats were anesthetized and the fur on their stomach shaved prior to exposure. Gum karaya patches with and without lavender essential oil were applied to the rat's stomach skin. Each rat was housed in an individual cage in order to prevent oral contamination of the essential oil by one rat eating another's patch. Blood samples (0.5 ml) were taken at 0, 12, 24, 36, 48 and 60 h from a nick at the tip of tail to determine contents of essential-oil components. Rats were restrained and the tail was gently massaged to facilitate blood collection. Blood samples were collected in vials containing 0.1 ml heparin (100 kU, Sigma). A 10-μl volume of aqueous linalyl isovalerate stock solution was added as an internal standard to each blood sample and samples were stored at −80° C. After 60 h, patches were removed and the application site was wiped with 70% alcohol. Animals were sacrificed and the patch of stomach skin to which the essential oil patch had been applied was removed and minced into small pieces. The skin pieces were placed in 1 ml of ethanol containing linalyl isovalerate as the internal standard and sonicated for 30 min after heating to 50° C. A 10-μl aliquot was then injected straight into the gas chromatograph. A urine sample (0.5 ml) was obtained from the bladder immediately after sacrifice. Urine samples were similarly analyzed by gas chromatography (GC).
Blood (0.5 ml) or phosphate buffer (0.5 ml) was collected at t=0, 12, 24, 36, 48 and 60 h. Blood samples were placed in Eppendorf heparin-coated glass vials (Agilent) by heparin-washed syringe, which were sealed with septa and screw caps. Each vial contained 100 μl of heparin and blood samples were frozen at −80° C. for storage. Prior to analysis, the blood or phosphate buffer was thawed to room temperature, a 10-μl volume of internal standards (6.5 mg linalyl isovalerate and 6.5 mg geranyl formate in 25 ml acetonitrile) was added to the vial and then the mixture was vortexed. The vials were tightly capped using a clear cap with septum. The septa were pre-punctured immediately before analysis using a needle to facilitate the insertion of the fiber sheath. The fiber sheath was inserted through the septum, and positioned to expose the fiber in the center of the headspace. The vial was placed on a heating block to maintain temperature at a constant 50° C. and the solid-phase microextraction (SPME) assembly was clamped securely. Absorption time was 30 min. No stirring was required. After absorption, the SPME fiber sheath was immediately transferred to the GC injector for desorption for 5 min and GC analysis.
GC was performed on an Agilent 7890A gas chromatograph equipped with a split/splitless capillary injector, flame ionization detection (FID) system and GC Chem Station (Version B.03.01; Agilent Technologies 2007). Chromatography was carried out on a WAX or HP-5 column (30 m×0.32 mm×0.25 μm). The GC operating conditions were: splitless or split 1:40 injector 240° C., oven 50° C. for 1 min and then 10° C. min^−1 to 160° C., then 25° C. min^−1 to 240° C. and held for 6 min; the carrier gas was hydrogen.
In this experiment, patches containing lavender essential oil were adhered to the abdomen area. Patches without essential oil served as blanks. […] Detection under splitless conditions facilitated the detection of linalyl acetate, linalool, camphor, borneol and α-terpineol, the latter two being additional constituents detected only under these conditions. High concentrations of linalool, borneol and camphor were detected, in comparison to low levels of terpeneol and linalyl acetate. […]

[4] = cited from earlier work
[5] = cited from earlier work; remark: listed apart in the source
[6] = male, Sprague-Dawley, rat, in vivo

C=CC(C)(O)CCC=C(C)C (centres unmarked) [Linalool]
% diffused (of initial amount of entrapped essential oil) ([1]; Almond-lavandula mixture, 0 h): 0.00^a %
% diffused (of initial amount of entrapped essential oil) ([1]; Almond-lavandula mixture, 6 h): 1.29 ± 1.53^a %
% diffused (of initial amount of entrapped essential oil) ([1]; Almond-lavandula mixture, 12 h): 2.01 ± 2.09^a %
% diffused (of initial amount of entrapped essential oil) ([1]; Almond-lavandula mixture, 24 h): 3.93% and 3.93 ± 0.01^a %
% diffused (of initial amount of entrapped essential oil) ([1]; Lavandula patch, 0 h): 0.00^a %
% diffused (of initial amount of entrapped essential oil) ([1]; Lavandula patch, 6 h): 0.73 ± 0.16^b %
% diffused (of initial amount of entrapped essential oil) ([1]; Lavandula patch, 12 h): 1.53 ± 0.03^c %
% diffused (of initial amount of entrapped essential oil) ([1]; Lavandula patch, 24 h): 2.74 ± 0.31^d %
Accumulated concentration transferred through the skin ([1]; 6 h): 16.49 ± 2.81^a mg/L
Accumulated concentration transferred through the skin ([1]; 12 h): 34.46 ± 1.20^b mg/L
Accumulated concentration transferred through the skin ([1]; 24 h): 61.64 ± 3.83^c mg/L
Accumulated concentration diffused through the skin ([1]; 6 h): 31.07 ± 36.72^a mg L^−1
Accumulated concentration diffused through the skin ([1]; 12 h): 48.34 ± 50.41^a mg L^−1
Accumulated concentration diffused through the skin ([1]; 24 h): 94.78 ± 0.19^a mg L^−1
Calculated steady-state flux ([1]; rubbing in a mixture with almond oil): 0.027 mg.cm^−2 h^−1
Calculated steady-state flux ([1]; transferred from a lavender essential oil patch): 0.018 mg.cm^2 h^−1
Highest concentration in blood ([2]; 30 min after rubbing the skin with almond-lavender essential oil mixture): 0.32 mg/L
Highest concentration in blood ([2]; 36 h after a 7.5% lavender essential oil patch was adhered to the abdomen): 0.48 mg/L
Time for which the constituent was evident in the blood ([2]; after rubbing the skin with the almond-essential oil mixture): 80 min
Concentration observed in the blood [3, 6]: 0.099 mg/L
Highest value in blood [3, 6]: 0.099 mg/L
concentration at 60 h [3, 6]: 53 ng/mL
Log P [4]: about 3
Solubility in water [5]: relatively high

C=CC(C)(CCC=C(C)C)OC(C)=O (centres unmarked) [Linalyl acetate]
% diffused (of initial amount of entrapped essential oil) ([1]; Almond-lavandula mixture, 0 h): 0.00^a %
% diffused (of initial amount of entrapped essential oil) ([1]; Almond-lavandula mixture, 6 h): 0.107 ± 0.150^a %
% diffused (of initial amount of entrapped essential oil) ([1]; Almond-lavandula mixture, 12 h): 0.153 ± 0.216^a %
% diffused (of initial amount of entrapped essential oil) ([1]; Almond-lavandula mixture, 24 h): 0.246 ± 0.344^a %
% diffused (of initial amount of entrapped essential oil) ([1]; Lavandula patch, 0 h): 0.00^a %
% diffused (of initial amount of entrapped essential oil) ([1]; Lavandula patch, 6 h): 0.008 ± 0.011^a %
% diffused (of initial amount of entrapped essential oil) ([1]; Lavandula patch, 12 h): 0.013 ± 0.018^a %
Accumulated concentration transferred through the skin ([1]; 6 h): 0.15 ± 0.14^a mg/L
Accumulated concentration transferred through the skin ([1]; 12 h): 0.26 ± 0.25^a mg/L
Accumulated concentration transferred through the skin ([1]; 24 h): 0.37 ± 0.01^a mg/L
Accumulated concentration diffused through the skin ([1]; 6 h): 2.30 ± 2.24^a mg L^−1
Accumulated concentration diffused through the skin ([1]; 12 h): 3.33 ± 3.23^a mg L^−1
Accumulated concentration diffused through the skin ([1]; 24 h): 5.62 ± 4.10^a mg L^−1
Detection in blood ([2]; after rubbing with the almond-lavender oil mixture (massage)): No linalyl acetate was detected
Concentration observed in the blood ([3]; quoted for comparison with the skin extract): 0.009 mg/L
Log P [4]: about 4
Solubility in water [5]: relatively low
